The molecules below were run on A431 cell (assay: Cell Proliferation Inhibition EGFR Assay (SRB method)). Conditions: Homo sapiens, A-431; A431 cells, 72 hours exposure, Sulforhodamine B; read-out: IC50 (A431).
Assay type: cell-based, homo sapient
Method in brief: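 A431 cells grown to ~85% confluence, then exposed 72 hours at 37° C to 6 to 7 serial concentrations of compound in DMEM/F12 + 10% FBS, final DMSO ≤0.5%. Growth measured by TCA fixation and sulforhodamine B staining; IC50 calculated from inhibition rates.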

Structure (SMILES)	IC50
Cc1c(/C=C2\C(=O)Nc3ncnc(Nc4ccc(F)c(Cl)c4)c32)[nH]c2c1C(=O)N(CCN1CCOCC1)CC2 [Example 24, 4-(3-Chloro-4-fluoro-phenylamino)-5-[3-methyl-5-(2-morpholin-4-yl-ethyl)-4-oxo-4,5,6,7-tetrahydro-1H-pyrrolo[3,2-c]pyridine-2-ylmethylenene]-5,7-dihydro-pyrrolo[2,3-d]pyrimidin-6-one]	330 nM
CCN(CC)CCN1CCc2[nH]c(/C=C3\C(=O)Nc4cccc(-c5cccc(Cl)c5F)c43)c(C)c2C1=O [Example 36, 2-[4-(3-Chloro-2-fluoro-phenyl)-2-oxo-1,2-dihydro-indol-3-ylidenemethyl]-5-(2-diethylamino-ethyl)-3-methyl-1,5,6,7-tetrahydro-pyrrolo[3,2-c]pyridin-4-one]	7320 nM
Cc1c(/C=C2\C(=O)Nc3cccc(CCO)c32)[nH]c2c1C(=O)N(CCN1CCOCC1)CC2 [Example 42, 2-[4-(2-Hydroxy-ethyl)-2-oxo-1,2-dihydro-indol-3-ylidenemethyl]-3-methyl-5-(2-morpholin-4-yl-ethyl)-1,5,6,7-tetrahydro-pyrrolo[3,2-c]pyridin-4-one]	16500 nM
Cc1c(/C=C2\C(=O)Nc3ccc(Cl)cc32)[nH]c2c1C(=O)N(CCN1CCOCC1)CC2 [Example 16, 2-(5-Chloro-2-oxo-1,2-dihydro-indol-3-ylidenemethyl)-3-methyl-5-(2-morpholin-4-yl-ethyl)-1,5,6,7-tetrahydro-pyrrolo[3,2-c]pyridin-4-one]	10200 nM
CCN(CC)CCN1CCc2[nH]c(/C=C3\C(=O)Nc4cccc(Br)c43)c(C)c2C1=O [Example 30, 2-(4-Bromo-2-oxo-1,2-dihydro-indol-3-ylidenemethyl)-5-(2-diethylamino-ethyl)-3-methyl-1,5,6,7-tetrahydro-pyrrolo[3,2-c]pyridin-4-one]	330 nM
Cc1c(/C=C2\C(=O)Nc3cccc(C4CCNCC4)c32)[nH]c2c1C(=O)N(CCN1CCOCC1)CC2 [Example 52, 3-Methyl-5-(2-morpholin-4-yl-ethyl)-2-(2-oxo-4-piperidin-4-yl-1,2-dihydro-indol-3-ylidenemethyl)-1,5,6,7-tetrahydro-pyrrolo[3,2-c]pyridin-4-one]	1900 nM
CCN(CC)CCN1CCc2[nH]c(/C=C3\C(=O)Nc4cccc(C5CCNCC5)c43)c(C)c2C1=O [Example 31, 5-(2-Diethylamino-ethyl)-3-methyl-2-(2-oxo-4-piperidin-4-yl-1,2-dihydro-indol-3-ylidenemethyl)-1,5,6,7-tetrahydro-pyrrolo[3,2-c]pyridin-4-one]	350 nM
Cc1c(/C=C2\C(=O)Nc3cccc(-c4cccc(F)c4F)c32)[nH]c2c1C(=O)N(CCN1CCCC1)CC2 [Example 59, 2-[4-(2,3-Difluoro-phenyl)-2-oxo-1,2-dihydro-indol-3-ylidenemethyl]-3-methyl-5-(2-pyrrolidin-1-yl-ethyl)-1,5,6,7-tetrahydro-pyrrolo[3,2-c]pyridin-4-one]	2190 nM
CCN(CC)CCN1CCc2[nH]c(/C=C3\C(=O)Nc4ccc(OC)cc43)c(C)c2C1=O [Example 35, 5-(2-Diethylamino-ethyl)-2-(5-methoxy-2-oxo-1,2-dihydro-indol-3-ylidenemethyl)-3-methyl-1,5,6,7-tetrahydro-pyrrolo[3,2-c]pyridin-4-one]	4350 nM
CCN(CC)CCN1CCc2[nH]c(/C=C3\C(=O)Nc4cccc(CCO)c43)c(C)c2C1=O [Example 37, 5-(2-Diethylamino-ethyl)-2-[4-(2-hydroxy-ethyl)-2-oxo-1,2-dihydro-indol-3-ylidenemethyl]-3-methyl-1,5,6,7-tetrahydro-pyrrolo[3,2-c]pyridin-4-one]	3850 nM
CCN(CC)CCN1CCc2[nH]c(/C=C3\C(=O)Nc4cccc(-c5cccc(F)c5F)c43)c(C)c2C1=O [Example 39, 5-(2-diethylamino-ethyl)-2-[4-(2,3-difluoro-phenyl)-2-oxo-1,2-dihydro-indol-3-ylidenemethyl]-3-methyl-1,5,6,7-tetrahydro-pyrrolo[3,2-c]pyridin-4-one]	380 nM
Cc1c(/C=C2\C(=O)Nc3ncc(Br)cc32)[nH]c2c1C(=O)N(CCN1CCOCC1)CC2 [Example 50, 2-(5-Bromo-2-oxo-1,2-dihydro-pyrrolo[2,3-b]pyridin-3-ylidenemethyl)-3-methyl-5-(2-morpholin-4-yl-ethyl)-1,5,6,7-tetrahydro-pyrrolo[3,2-c]pyridin-4-one]	15900 nM
CCN(CC)CCN1CCc2[nH]c(/C=C3\C(=O)Nc4ncnc(Nc5ccc(F)c(Cl)c5)c43)c(C)c2C1=O [Example 12, 4-(3-Chlor O-4-fluoro-phenylamino)-5-[5-(2-diethylamino-ethyl)-3-methyl-4-oxo-4,5,6,7-tetrahydro-1H-pyrrolo[3,2-c]pyridine-2-ylmethylene]-5,7-dihydro-pyrrolo[2,3-d]pyrimidin-6-one]	67 nM
CCN(CC)CCN1CCc2[nH]c(/C=C3\C(=O)Nc4cccc(-c5ccc(Cl)cc5F)c43)c(C)c2C1=O [Example 34, 2-[4-(4-Chloro-2-fluoro-phenyl)-2-oxo-1,2-dihydro-indol-3-ylidenemethyl]-5-(2-diethylamino-ethyl)-3-methyl-1,5,6,7-tetrahydro-pyrrolo[3,2-c]pyridin-4-one]	3230 nM

— patent US8697692B2, “Pyrrolo [3,2-c] pyridine-4-one 2-indolinone protein kinase inhibitors” (Shanghai Hengrui Pharmaceutical Co., Ltd., priority 2006, dated 2014)
